Data reported in article PMC8905313, “Overexpression of ABCB1 Associated With the Resistance to the KRAS-G12C Specific Inhibitor ARS-1620 in Cancer Cells” (Frontiers in Pharmacology, 2022).

Target: T1, ABCB1 (Homo sapiens, UniProt P08183)
T1 construct: ABCB1 membrane vesicles
Assay: vanadate-sensitive ATPase stimulation in ABCB1 membrane vesicles; supported by HPLC efflux and [3H]-paclitaxel accumulation in KB-C2 cells
Type: biochemical

T1 sequence (P08183 whole entry): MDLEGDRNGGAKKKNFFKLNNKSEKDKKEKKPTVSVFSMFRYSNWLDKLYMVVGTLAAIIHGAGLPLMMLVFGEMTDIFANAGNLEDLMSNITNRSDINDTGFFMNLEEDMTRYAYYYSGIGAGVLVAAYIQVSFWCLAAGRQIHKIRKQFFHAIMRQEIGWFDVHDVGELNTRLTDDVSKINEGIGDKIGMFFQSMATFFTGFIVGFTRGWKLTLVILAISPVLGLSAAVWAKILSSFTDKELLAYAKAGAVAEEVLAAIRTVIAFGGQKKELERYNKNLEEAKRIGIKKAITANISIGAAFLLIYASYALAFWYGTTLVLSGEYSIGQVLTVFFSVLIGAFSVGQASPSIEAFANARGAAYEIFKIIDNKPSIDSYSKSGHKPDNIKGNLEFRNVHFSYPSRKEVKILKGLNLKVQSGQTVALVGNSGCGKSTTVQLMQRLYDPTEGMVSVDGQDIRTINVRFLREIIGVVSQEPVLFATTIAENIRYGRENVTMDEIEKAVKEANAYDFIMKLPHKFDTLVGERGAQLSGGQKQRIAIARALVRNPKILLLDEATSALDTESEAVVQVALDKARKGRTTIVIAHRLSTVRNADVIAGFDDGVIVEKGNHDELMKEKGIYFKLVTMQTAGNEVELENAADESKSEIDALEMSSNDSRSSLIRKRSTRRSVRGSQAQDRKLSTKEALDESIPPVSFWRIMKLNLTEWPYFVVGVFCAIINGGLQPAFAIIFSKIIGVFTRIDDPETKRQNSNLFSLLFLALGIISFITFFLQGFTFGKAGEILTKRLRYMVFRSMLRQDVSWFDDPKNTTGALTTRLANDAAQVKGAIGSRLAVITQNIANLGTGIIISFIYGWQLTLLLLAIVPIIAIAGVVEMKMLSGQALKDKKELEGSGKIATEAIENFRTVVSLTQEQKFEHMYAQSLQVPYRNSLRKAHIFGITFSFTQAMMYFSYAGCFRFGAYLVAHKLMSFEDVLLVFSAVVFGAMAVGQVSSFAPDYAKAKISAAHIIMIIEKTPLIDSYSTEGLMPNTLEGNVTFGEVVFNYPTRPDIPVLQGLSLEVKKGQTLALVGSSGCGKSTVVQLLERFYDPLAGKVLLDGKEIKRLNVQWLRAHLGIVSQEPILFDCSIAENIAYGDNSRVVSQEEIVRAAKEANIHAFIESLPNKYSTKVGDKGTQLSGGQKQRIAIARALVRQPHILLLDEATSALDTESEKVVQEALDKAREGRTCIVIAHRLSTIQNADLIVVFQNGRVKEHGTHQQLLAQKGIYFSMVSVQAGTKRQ

- EC50: 14.8 µM
Compound: C=CC(=O)N1CCN(c2ncnc3c(F)c(-c4c(O)cccc4F)c(Cl)cc23)CC1 [ARS-1620]
